What was measured:
[1] = Microsomal stability (rat); type: in vitro ADME; settings: rat microsomes
Solubility at pH 7.4 = type: physicochemical
[2] = test system: Asexual parasites of P. falciparum strain 3D7; assay: In vitro drug activity on asexual parasites (SYBR Green assay); type: cell-based, Plasmodium falciparum
How it was run: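 SYBR Green I fluorescence (ex 490, em 520 nm) was read after freeze-thaw lysis and 30 min staining at room temperature. Before that, drug-treated cultures (0.5% parasitemia, 2% hematocrit, DMSO ≤0.5%) were incubated 72 h, in duplicate.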

PAMPA permeability = type: in vitro ADME
mTOR = mTOR (Homo sapiens, UniProt P42345); assay: mTOR activity (no method described); type: biochemical

Structure (SMILES)	Microsomal Stability (rat) T1/2 [1] [min]	Sol @ pH 7.4 (Solubility at pH 7.4) [ug/mL]	EC50 [2] [nM]	PAMPA Permeability (PAMPA permeability) [×10⁻⁶ cm/s]	mTOR (mTOR) [µM]
Cc1cc(C(=O)NCCN(C)C)ccc1-n1c(=O)ccc2cnc3ccc(-c4ccc(Cl)cc4)cc3c21 [Compound 274]	21.4	63.8	40.6	1010	4.9
Cc1cc(C(=O)NCCCN(C)C)ccc1-n1c(=O)ccc2cnc3ccc(-c4ccc(Cl)cc4)cc3c21 [Compound 275]	19.9	65.6	44.2	427	4.039
CCN(CC)CCNC(=O)c1ccc(-n2c(=O)ccc3cnc4ccc(-c5ccc(Cl)cc5)cc4c32)c(C)c1 [Compound 276]	5.8	34.8	222	973	21.76
Cc1cc(C(=O)NCCN2CCN(C)CC2)ccc1-n1c(=O)ccc2cnc3ccc(-c4ccc(Cl)cc4)cc3c21 [Compound 277]	3.8	19.9	82.5	354	3.631
Cc1cc(C(=O)NCCCN2CCCCC2)ccc1-n1c(=O)ccc2cnc3ccc(-c4ccc(Cl)cc4)cc3c21 [Compound 278]	2.6	>83	110	1380	8
Cc1cc(C(=O)NCCCN(CCO)CCO)ccc1-n1c(=O)ccc2cnc3ccc(-c4ccc(Cl)cc4)cc3c21 [Compound 281]	3	>86	27.4	33.4	2.18
Cc1cc(C(=O)NCCCN2CCN(C)CC2)ccc1-n1c(=O)ccc2cnc3ccc(-c4ccc(Cl)cc4)cc3c21 [Compound 282]	4.1	>86	71.4	598	4.536
CCN(CC)CCNC(=O)c1ccc(-n2c(=O)ccc3cnc4ccc(-c5ccc(Cl)cc5)cc4c32)cc1 [Compound 284]	7.5	36.6	183	281	9.354
O=C(NCCN1CCC1)c1ccc(-n2c(=O)ccc3cnc4ccc(-c5ccc(Cl)cc5)cc4c32)cc1 [Compound 285]	>30	41.6	59.7	159	1.506
Cc1cc(C(=O)NCCN2CCCCC2)ccc1-n1c(=O)ccc2cnc3ccc(-c4ccc(Cl)cc4)cc3c21 [Compound 291]	3.1	0	211	773	4.975
Cc1cc(C(=O)NCCN(C)c2ccccc2)ccc1-n1c(=O)ccc2cnc3ccc(-c4ccc(Cl)cc4)cc3c21 [Compound 292]	1.7	0	1140	3.4	15.56
Cc1cc(C(=O)NCCN2CCCC2)ccc1-n1c(=O)ccc2cnc3ccc(-c4ccc(Cl)cc4)cc3c21 [Compound 295]	10.6	0	162	639	23.74
CN(CCNC(=O)c1ccc(-n2c(=O)ccc3cnc4ccc(-c5ccc(Cl)cc5)cc4c32)cc1)c1ccccc1 [Compound 298]	1.5	0	950	148	50
CN(C)CC#Cc1ccc2ncc3c(c2c1)n(-c1cccc(C#N)c1)c(=O)n3C [Compound 396]	>30	46.4	144	208	15.14
Cn1c(=O)n(-c2ccc(C(=O)O)cc2)c2c3cc(-c4ccc(Cl)cc4)ccc3ncc21 [Compound 435]	>30	30.8	3660	11	0.3646

Results, then the compound that gave them:

Microsomal Stability (rat) T1/2 [1] [min]	Sol @ pH 7.4 (Solubility at pH 7.4) [ug/mL]	EC50 [2] [nM]	PAMPA Permeability (PAMPA permeability) [×10⁻⁶ cm/s]	mTOR (mTOR) [µM]	Structure (SMILES)
21.9	11.8	52.1	626	5.227	COc1cc(C(=O)NC2CC2)ccc1-n1c(=O)ccc2cnc3ccc(-c4ccc(F)c(O)c4)cc3c21 [Compound 272]
15.8	>84	50.5	49.1	1.317	Cc1cc(C(=O)NC2CCN(CCO)CC2)ccc1-n1c(=O)ccc2cnc3ccc(-c4ccc(Cl)cc4)cc3c21 [Compound 279]
>30	73.6	152	49.1	1.609	Cc1cc(C(=O)NC2CCN(CCN(C)C)CC2)ccc1-n1c(=O)ccc2cnc3ccc(-c4ccc(Cl)cc4)cc3c21 [Compound 280]
2.7	70.7	69.1	1180	15.09	Cc1cc(C(=O)NCCCN2CCC(C)CC2)ccc1-n1c(=O)ccc2cnc3ccc(-c4ccc(Cl)cc4)cc3c21 [Compound 283]
2.4	35.6	53.7	863	11.77	CC1CCN(CCCNC(=O)c2ccc(-n3c(=O)ccc4cnc5ccc(-c6ccc(Cl)cc6)cc5c43)cc2)CC1 [Compound 286]
4.3	<1	58.4	21.7	2.083	CCC(=O)NCCNC(=O)c1ccc(-n2c(=O)ccc3cnc4ccc(-c5ccc(Cl)cc5)cc4c32)cc1 [Compound 287]
1.2	<1	284	18.8	1.258	O=C(NCC1CCOCC1)c1ccc(-n2c(=O)ccc3cnc4ccc(-c5ccc(Cl)cc5)cc4c32)cc1 [Compound 288]
1.7	<1	86.7	141	9.216	Cc1cc(C(=O)NCCCN2CCS(=O)(=O)CC2)ccc1-n1c(=O)ccc2cnc3ccc(-c4ccc(Cl)cc4)cc3c21 [Compound 289]
3	63.1	64.4	311	4.806	CCN(CC)CCCNC(=O)c1ccc(-n2c(=O)ccc3cnc4ccc(-c5ccc(Cl)cc5)cc4c32)c(C)c1 [Compound 290]
22.9	0	146	241	6.103	Cc1cc(C(=O)NCCN2CCC2)ccc1-n1c(=O)ccc2cnc3ccc(-c4ccc(Cl)cc4)cc3c21 [Compound 293]
7.1	0	477	510	18.6	Cc1cc(C(=O)NCCN2CCCC2)ccc1-n1c(=O)ccc2cnc3ccc(-c4ccc(F)cc4)cc3c21 [Compound 296]
1.6	0	150	936	11.02	Cc1cc(C(=O)NCCCN2CCOCC2)ccc1-n1c(=O)ccc2cnc3ccc(-c4ccc(F)cc4)cc3c21 [Compound 297]
